Where two headings read alike, the source gives them in different places.
Tests used:
[1] = tested on: mitogen-activated protein kinase kinase (MEK); conditions: background statement; cited from earlier work
MUC1-C [2] = assay: Immunoblot of MUC1-C in BT-549 breast cancer cells; assay type: cell-based, Human; conditions: BT-549 cells, 100 nM, data not shown
Procedure: (§1) Human MCF-10A mammary epithelial cells were grown in mammary epithelial growth medium (MEGM, Lonza). Human MCF-7 and MDA-MB-468 breast cancer cells were cultured in Dulbecco's modified Eagle's medium with 10% heat-inactivated fetal bovine serum (FBS), 100 U/ml penicillin, 100 μg/ml streptomycin and 2 mM L-glutamine. Human BT-549 cells were maintained in RPMI-1640 medium (ATCC) with 10% FBS and 0.023 IU/ml insulin. Cells were treated with EGF (Sigma), heregulin beta 1 (HRG; Neomarkers), cycloheximide (CHX, Calbiochem), U0126 (Calbiochem), LY294002 (Caymam Chemical Company), BEZ-235 (Selleckchem) and rapamycin Cell Signaling Technology). In certain experiments, MCF-10A cells were serum-starved overnight, and inhibitors were added 2.5 h prior to EGF or HRG treatment.
(§2) Lysates from subconfluent cells were immunoblotted with anti-MUC1-C(AbS; Neomarkers), anti-β-actin (Sigma), anti-p-AKT, anti-AKT, anti-p-ERK1/2, anti-ERK1/2, anti-p-S6K1, anti-S6K1, anti-PCDC4, anti-eIF4E, eIF4A (Cell Signaling Technology) and anti-EGFR (Santa Cruz Technology) Immune complexes were detected with horseradish peroxidase-conjugated secondary antibodies and enhanced chemiluminescence (Amersham Biosciences). Intensity of certain signals was determined by densitometric scanning.

MUC1-C [3] = assay: Immunoblot of MUC1-C in MCF-7 breast cancer cells; assay type: cell-based, Human; conditions: MCF-7 cells; for MUC1-C abundance: 100 nM
Procedure: as §1, §2

MCF-10A cells = assay: EGF-stimulated MCF-10A cell growth, viable cell number by trypan blue exclusion; assay type: cell-based, Human; conditions: 100 nM, 24 h with EGF, reseeded, counted at 48 h
Excerpt: FIGS. 6A-D. MUC1-C translation is inhibited by CR-1-31-B in MCF-10A cells. (FIG. 6A) Structures of the indicated compounds.

MUC1-C [4] = assay: Immunoblot of MUC1-C in MDA-MB-468 breast cancer cells; assay type: cell-based, Human; conditions: MDA-MB-468 cells, 10 and 100 nM
Procedure: as §1, §2

MUC1-C [5] = assay: Immunoblot of MUC1-C in growth factor-stimulated MCF-10A cells; assay type: cell-based, Human; conditions: for HRG-induced increase in MUC1-C abundance: MCF-10A cells + HRG, indicated concentrations; for EGF- and HRG-induced MUC1-C translation: growth factor stimulation (summary in discussion)
Procedure: as §1, §2

[6] = cited from earlier work
CYP2C9 = CYP2C9 (Homo sapiens, UniProt P11712); conditions: background statement; cited from earlier work
cancer cells [7] = conditions: literature; cited from earlier work
eIF4A RNA helicase = conditions: literature; cited from earlier work
cancer cells [8] = conditions: literature, preclinical studies, cited from earlier work
PDCD4 = assay: Immunoblot of PDCD4 in MCF-10A cells; assay type: cell-based, Human; conditions: 100 nM silvestrol
Procedure: as §1, §2

cyclin D1, MYC and MCL1 = conditions: literature; cited from earlier work
β-actin = β-actin abundance in growth factor-stimulated MCF-10A cells; assay type: cell-based, Human
Procedure: as §2

MUC1 gene promoter = assay: MUC1 promoter luciferase assay in MCF-10A cells; assay type: cell-based, Human; conditions: pMUC1-Luc, EGF 100 ng/ml 5 h
Procedure: Control pGL3 or pGL3-MUC1-promoter constructs were transfected with the Renilla plasmid into cells in the presence of Lipofectamine. At 24 h after transfection, cells were serum-starved overnight, and then treated with EGF (100 ng/ml) for 5 h. Luciferase reporter activity was measured using the Promega Dual Glo kit.

MUC1 mRNA = MUC1 mRNA by qRT-PCR in MCF-10A cells; assay type: cell-based, Human; conditions: EGF stimulation
Procedure: Total RNA was isolated from cells using an RNeasy Mini kit (Qiagen). cDNAs were synthesized with 0.3-1 μg RNA using the first-strand cDNA synthesis kit (Invitrogen). The SYBR green qPCR assay kit (Applied Biosystems) was used with 5 μl of 20-fold diluted cDNA from each sample, and the samples were amplified with the ABI Prism 7300 machine (Applied Biosystems).

[9] = MCF-10A cells + EGF, CHX 10 ng/ml, U0126 10 μM, LY294002 50 μM, BEZ235 250 or 500 nM, rapamycin 100 nM, silvestrol, CR-1-31-B, CR-1-30-B indicated concentrations 24 h

Chain of CYP2C9 (P11712 whole entry): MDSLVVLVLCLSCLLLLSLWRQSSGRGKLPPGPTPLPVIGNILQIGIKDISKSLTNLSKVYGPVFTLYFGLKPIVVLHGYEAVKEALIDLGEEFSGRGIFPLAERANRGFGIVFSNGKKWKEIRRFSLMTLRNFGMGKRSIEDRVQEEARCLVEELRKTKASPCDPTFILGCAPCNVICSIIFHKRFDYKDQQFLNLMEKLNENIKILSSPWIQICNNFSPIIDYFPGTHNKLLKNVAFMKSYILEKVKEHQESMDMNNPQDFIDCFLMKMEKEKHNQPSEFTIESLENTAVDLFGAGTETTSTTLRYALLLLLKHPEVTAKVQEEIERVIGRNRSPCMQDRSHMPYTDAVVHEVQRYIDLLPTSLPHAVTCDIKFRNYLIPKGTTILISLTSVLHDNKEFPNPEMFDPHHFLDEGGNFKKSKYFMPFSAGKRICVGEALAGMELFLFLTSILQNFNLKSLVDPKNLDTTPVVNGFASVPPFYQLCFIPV

Q: Which “inhibition of MEK” value [1] does the source give for `COc1cccc(-c2cc(=O)c3ccccc3o2)c1N` [PD98059, 2-(2′-amino-3′-methoxyphenyl)-oxanaphthalen-4-one] here?
A: potent inhibitor

Q: Which MUC1-C expression (MUC1-C [2]) does the source give for CR-1-31-B here?
A: decreases

Q: What about the MUC1-C abundance (MUC1-C [3]) of the same compound?
A: downregulation

Q: What about the “growth of MCF-10A cells in response to EGF” value (MCF-10A cells) of the same compound?
A: attenuated

Q: And the MUC1-C abundance (MUC1-C [4])?
A: decreases

Q: And the “EGF-induced increase in MUC1-C abundance” value (MUC1-C [5]; [9])?
A: dose-dependent decrease

Q: And the “HRG-induced increase in MUC1-C abundance” value (MUC1-C [5]; 24 h)?
A: blocked

Q: And the “EGF- and HRG-induced MUC1-C translation” value (MUC1-C [5]; MCF-10A cells)?
A: similarly blocks

Q: For `Cn1c(=O)n(-c2ccc(C(C)(C)C#N)cc2)c2c3cc(-c4cnc5ccccc5c4)ccc3ncc21` [BEZ235], which “EGF-induced increase in MUC1-C abundance” value (MUC1-C [5]; [9]) is on record?
A: blocked

Q: With `O=c1c(O)c(-c2ccc(O)cc2)oc2cc(O)cc(O)c12` [Kaempferol] as the compound, how does the solubility in water [6] read?
A: slightly soluble

Q: Which “EGF-induced increase in MUC1-C abundance” value (MUC1-C [5]; [9]) does the source give for `C[C@@H]1C[C@@H]([C@H](O)CC2CC(=O)NC(=O)C2)C(=O)[C@@H](C)C1` [cycloheximide] here?
A: blocked

Q: For `O=c1cc(-c2ccc(O)cc2)oc2cc(O)cc(O)c12` [Apigenin, 4′,5,7-trihydroxyflavone], which “inhibition of CYP2C9” value (CYP2C9) is on record?
A: potent inhibitor

Q: For `COC(=O)[C@H]1[C@@H](O)[C@@]2(O)c3c(OC)cc(O[C@@H]4O[C@@H]([C@H](O)CO)CO[C@H]4OC)cc3O[C@@]2(c2ccc(OC)cc2)[C@@H]1c1ccccc1` [silvestrol], which “activity against cancer cells growing in vitro” value (cancer cells [7]) is on record?
A: active

Q: And the “activity against eIF4A RNA helicase” value (eIF4A RNA helicase)?
A: potent inhibitor

Q: What about the “anti-tumor activity in animal models” value (cancer cells [8]) of the same compound?
A: promising anti-tumor activity

Q: What about the “toxicity in animal models” value (cancer cells [8]) of the same compound?
A: little toxicity

Q: What about the “anti-tumor activity in animal models” value (cancer cells [8]; listed as Silvestrol) of the same compound?
A: active

Q: What about the MUC1-C levels (MUC1-C [3]; 10 nM) of the same compound?
A: limited effect

Q: And the MUC1-C abundance (MUC1-C [3])?
A: more pronounced decrease

Q: What about the PDCD4 abundance (PDCD4) of the same compound?
A: marked decrease

Q: And the “production of cyclin D1, MYC and MCL1” value (cyclin D1, MYC and MCL1)?
A: decreases

Q: What about the MUC1-C abundance (MUC1-C [4]) of the same compound?
A: clearly detectable

Q: What about the “EGF-induced increase in MUC1-C abundance” value (MUC1-C [5]; [9]) of the same compound?
A: blocked

Q: What about the “HRG-induced increase in MUC1-C abundance” value (MUC1-C [5]; 24 h) of the same compound?
A: dose-dependent inhibitory effects

Q: And the “EGF- and HRG-induced MUC1-C translation” value (MUC1-C [5]; MCF-10A cells)?
A: substantially blocked

Q: What about the “abundance of β-actin” value (β-actin) of the same compound?
A: little effect

Q: For “EGF: growth factor (Sigma) stimulating EGFR”, which “activation of the MUC1 gene promoter” value (MUC1 gene promoter) is on record?
A: no significant effect

Q: What about the “effect of growth factor stimulation on MUC1-C levels” value (MUC1-C [3]; EGF 100 ng/ml, HRG data not shown) of the same compound?
A: no apparent effect

Q: And the “MUC1 mRNA levels” value (MUC1 mRNA)?
A: no apparent effect

Q: What about the “increase in MUC1-C expression compared to baseline levels” value (MUC1-C [5]; MCF-10A cells, growth factor stimulation (EGF 100 ng/ml, HRG 10 ng/ml), 24 h) of the same compound?
A: 65 fold

Q: With `N#CC(=C(/N)Sc1ccccc1N)/C(C#N)=C(\N)Sc1ccccc1N` [U0126] as the compound, how does the “EGF-induced increase in MUC1-C abundance” value (MUC1-C [5]) read?
A: not ERK1/2, blocked
